Assay results as given in ChEMBL document CHEMBL5357034, “Antimicrobial and Anti-inflammatory Cyclic Tetrapeptides from the Co-cultures of Two Marine-Derived Fungi” (2024).
Square brackets hold non-standard residues; d marks the D form. Peptide text beside a SMILES is read from it. NMeA = CN[C@@H](C)C(=O)O

Columns and labels:
Format in all cases: functional
Pseudomonas aeruginosa = experiment: Antimicrobial activity against Pseudomonas aeruginosa ATCC 27853 assessed as inhibition of microbial growth incubated for 24 hrs by broth microdilution method
RAW264.7 [1] = experiment: Anti-inflammatory activity in LPS-induced mouse RAW264.7 cells assessed as inhibition of IL-6 production at 10 uM preincubated with compound for 24 hrs followed by compound replacement with DMEM media and measured 6 hrs after LPS stimulation by qRT-PCR analysis relative to control
Edwardsiella ictaluri = experiment: Antimicrobial activity against Edwardsiella ictaluri ATCC33202 assessed as inhibition of microbial growth incubated for 24 hrs by broth microdilution method
Escherichia coli = experiment: Antimicrobial activity against Escherichia coli ATCC 25922 assessed as inhibition of microbial growth incubated for 24 hrs by broth microdilution method
RAW264.7 [2] = experiment: Anti-inflammatory activity in LPS-induced mouse RAW264.7 cells assessed as inhibition of TNF-alpha production at 10 uM preincubated with compound for 24 hrs followed by compound replacement with DMEM media and measured 6 hrs after LPS stimulation by qRT-PCR analysis relative to control
RAW264.7 [3] = experiment: Anti-inflammatory activity in LPS-induced mouse RAW264.7 cells assessed as inhibition of MCP-1 production at 10 uM preincubated with compound for 24 hrs followed by compound replacement with DMEM media and measured 6 hrs after LPS stimulation by qRT-PCR analysis relative to control
Staphylococcus aureus [4] = experiment: Antimicrobial activity against methicillin-resistant Staphylococcus aureus ATCC R6101 assessed as inhibition of microbial growth incubated for 24 hrs by broth microdilution method
Staphylococcus aureus [5] = experiment: Antimicrobial activity against methicillin-resistant Staphylococcus aureus ATCC 33591 assessed as inhibition of microbial growth incubated for 24 hrs by broth microdilution method
Candida albicans = experiment: Antimicrobial activity against Candida albicans ATCC 10213 assessed as inhibition of microbial growth incubated for 24 hrs by broth microdilution method
Edwardsiella tarda [6] = experiment: Antimicrobial activity against Edwardsiella tarda QDIO-2 assessed as inhibition of microbial growth incubated for 24 hrs by broth microdilution method
Bacillus subtilis = experiment: Antimicrobial activity against Bacillus subtilis ATCC 6633 assessed as inhibition of microbial growth incubated for 24 hrs by broth microdilution method
Staphylococcus aureus [7] = experiment: Antimicrobial activity against Staphylococcus aureus ATCC 29213 assessed as inhibition of microbial growth incubated for 24 hrs by broth microdilution method
Edwardsiella tarda [8] = experiment: Antimicrobial activity against Edwardsiella tarda ATCC15947 assessed as inhibition of microbial growth incubated for 24 hrs by broth microdilution method
Acinetobacter baumannii = experiment: Antimicrobial activity against Acinetobacter baumannii 2799 assessed as inhibition of microbial growth incubated for 24 hrs by broth microdilution method

| SMILES | MIC (Pseudomonas aeruginosa) [µg/mL] | inhibition at 10 µM (RAW264.7 [1]) [%] | MIC (Edwardsiella ictaluri) [µg/mL] | MIC (Escherichia coli) [µg/mL] | inhibition at 10 µM (RAW264.7 [2]) [%] | inhibition at 10 µM (RAW264.7 [3]) [%] | MIC (Staphylococcus aureus [4]) [µg/mL] | MIC (Staphylococcus aureus [5]) [µg/mL] | MIC (Candida albicans) [µg/mL] | MIC (Edwardsiella tarda [6]) [µg/mL] | MIC (Bacillus subtilis) [µg/mL] | MIC (Staphylococcus aureus [7]) [µg/mL] | MIC (Edwardsiella tarda [8]) [µg/mL] | MIC (Acinetobacter baumannii) [µg/mL] |
| --- | --- | --- | --- | --- | --- | --- | --- | --- | --- | --- | --- | --- | --- | --- |
| CC[C@H](C)[C@@H]1NC(=O)[C@H]([C@@H](C)O)NC(=O)[C@H](Cc2ccc(OC)cc2)NC(=O)[C@@H]2CCCN2C1=O (cyclo(IPY(Me)T)) | > 128 | 63 | > 128 | > 128 | 16 | 42 | > 128 | > 128 | > 128 | > 128 | > 128 | > 128 | > 128 | > 128 |
| CC(C)Cc1cnc(CC(C)C)c(=O)[nH]1 | > 128 |  | 64 | > 128 |  |  | > 128 | > 128 | > 128 | 128 | > 128 | > 128 | 128 | > 128 |
| CC[C@H](C)[C@@H]1NC(=O)[C@H]([C@@H](C)O)NC(=O)[C@H](Cc2ccccc2)NC(=O)[C@H](C)N(C)C1=O (cyclo(FTI[NMeA])) | > 128 | 61 | 128 | > 128 | 13 | 56 | > 128 | > 128 | > 128 | 128 | > 128 | > 128 | > 128 | > 128 |
| CC[C@H](C)[C@@H]1NC(=O)[C@H](C)NC(=O)[C@H](Cc2ccc(OC)cc2)NC(=O)[C@H](C)N(C)C1=O (cyclo(AI[NMeA]Y(Me))) |  | 67 |  |  | 6.6 | 12 |  |  |  |  |  |  |  |  |
| CN[C@H](CC(C)C)C(=O)N[C@H]1C(=O)N[C@@H](CC(N)=O)C(=O)N[C@H]2C(=O)N[C@H]3C(=O)N[C@H](C(=O)N[C@H](C(=O)O)c4cc(O)cc(O)c4-c4cc3ccc4O)[C@H](O)c3ccc(c(Cl)c3)Oc3cc2cc(c3O[C@@H]2O[C@H](CO)[C@@H](O)[C@H](O)[C@H]2O[C@H]2C[C@](C)(N)[C@H](O)[C@H](C)O2)Oc2ccc(cc2Cl)[C@H]1O [VANCOMYCIN] | > 128 |  | > 128 | 128 |  |  | > 128 |  | < 0.25 | > 128 | < 0.25 |  | > 128 | 64 |
| CO[C@H]1/C=C/O[C@@]2(C)Oc3c(C)c(O)c4c(O)c(c(/C=N/N5CCN(C)CC5)c(O)c4c3C2=O)NC(=O)/C(C)=C\C=C\[C@H](C)[C@H](O)[C@@H](C)[C@@H](O)[C@@H](C)[C@H](OC(C)=O)[C@@H]1C [RIFAMPIN] | 8 |  | 8 | 4 |  |  | 8 | < 0.25 | < 0.25 | 4 | < 0.25 | < 0.25 | 2 | 1 |
| CC[C@H](C)[C@@H]1NC(=O)[C@H]([C@@H](C)O)NC(=O)[C@H](Cc2ccc(OC)cc2)NC(=O)[C@H](C)N(C)C1=O (cyclo(I[NMeA]Y(Me)T)) | > 128 | 55 | 64 | > 128 | 24 | 44 | > 128 | > 128 | > 128 | > 128 | > 128 | > 128 | 128 | > 128 |
| CC(C)Cc1ncc([C@@H](O)C(C)C)n(O)c1=O | > 128 |  | 64 | > 128 |  |  | > 128 | 16 | 32 | 128 | 128 | 32 | 128 | 128 |
| COc1ccc(C[C@@H]2NC(=O)[C@H](C)N(C)C(=O)[C@H](CC(C)C)NC(=O)[C@H]([C@@H](C)O)NC2=O)cc1 (cyclo(L[NMeA]Y(Me)T)) | > 128 | 55 | > 128 | > 128 | 15 | 41 | > 128 | > 128 | > 128 | > 128 | > 128 | > 128 | 128 | > 128 |
